Assay results as given in patent US8173652B2, “Isoxazole-isoxazoles and isoxazole-isothiazoles” (Hoffmann-La Roche Inc., priority 2009, dated 2012).
pKi: −log10 of the molar value.

The molecules below were run against T1, human GABA A receptor α5β3γ2 (Homo sapiens, UniProt P18507+P31644) (assay: [3H]flumazenil competition binding assay, human GABA A α5 receptor). Conditions: human α5β3γ2 receptors transiently transfected in HEK293 cells; displacement of [3H]flumazenil 0.5 nM; 1 hour at 4° C.; means of two determinations; read-out: hKi GABA A α5.
T1 construct: expressed in transfected cells; host or cells: HEK293 (transiently transfected), membrane preparation
Method: Membrane Preparation and Binding Assay
The affinity of compounds at GABA A receptor subtypes was measured by competition for [3H]flumazenil (85 Ci/mmol; Roche) binding to HEK293 cells expressing rat (stably transfected) or human (transiently transfected) receptors of composition α1β3γ2, α2β3γ2, α3β3γ2 and α5β3γ2.
Cell pellets were suspended in Krebs-tris buffer (4.8 mM KCl, 1.2 mM CaCl2, 1.2 mM MgCl2, 120 mM NaCl, 15 mM Tris; pH 7.5; binding assay buffer), homogenized by polytron for ca. 20 sec on ice and centrifuged for 60 min at 4° C. (50000 g; Sorvall, rotor: SM24=20000 rpm). The cell pellets were re-suspended in Krebs-tris buffer and homogenized by polytron for ca. 15 sec on ice. Protein was measured (Bradford method, Bio-Rad) and aliquots of 1 mL were prepared and stored at −80° C.
Radioligand binding assays were carried out in a volume of […] (96-well plates) which contained […] of cell membranes, [^3H]flumazenil at a concentration of 1 nM for α1, α2 and α3 subunits and 0.5 nM for α5 subunits and the test compound in the range of […]. Nonspecific binding was defined by 10^−5 M diazepam and typically represented less than 5% of the total binding. Assays were incubated to equilibrium for 1 hour at 4° C. and harvested onto GF/C uni-filters (Packard) by filtration using a Packard harvester and washing with ice-cold wash buffer (50 mM Tris; pH 7.5). After drying, filter-retained radioactivity was detected by liquid scintillation counting. Ki values were calculated using Excel-Fit (Microsoft) and are the means of two determinations.

| pKi | Structure (SMILES) |
| --- | --- |
| 8.55 | O=C(NC1CCOCC1)c1cc(OCc2c(-c3ccc(F)cc3)noc2CO)no1 [Example 44, 3-[3-(4-Fluoro-phenyl)-5-hydroxymethyl-isoxazol-4-ylmethoxy]-isoxazole-5-carboxylic acid (tetrahydro-pyran-4-yl)-amide] |
| 7.87 | Cc1onc(-c2ccccc2)c1COc1cc(C(=O)NC(C)CO)on1 (single isomer, unassigned) [Example 8, (R or S)-3-(5-Methyl-3-phenyl-isoxazol-4-ylmethoxy)-isoxazole-5-carboxylic acid (2-hydroxy-1-methyl-ethyl)-amide] |
| 8.06 | CC(C)NC(=O)c1cc(OCc2c(-c3ccc(F)cc3)noc2CO)no1 [Example 43, 3-[3-(4-Fluoro-phenyl)-5-hydroxymethyl-isoxazol-4-ylmethoxy]-isoxazole-5-carboxylic acid isopropylamide] |
| 7.73 | Cc1onc(-c2ccccc2)c1COc1cc(C(=O)NN2CCCC2)on1 [Example 12, 3-(5-Methyl-3-phenyl-isoxazol-4-ylmethoxy)-isoxazole-5-carboxylic acid pyrrolidin-1-yl-amide] |
| 8.10 | Cc1onc(-c2ccccc2)c1COc1cc(C(=O)NCCO)on1 [Example 5, 3-(5-Methyl-3-phenyl-isoxazol-4-ylmethoxy)-isoxazole-5-carboxylic acid (2-hydroxy-ethyl)-amide] |
| 8.01 | Cc1onc(-c2ccc(F)cc2)c1COc1cc(C(=O)N2CC3(COC3)C2)on1 [Example 42, {3-[3-(4-Fluoro-phenyl)-5-methyl-isoxazol-4-ylmethoxy]-isoxazol-5-yl}-(2-oxa-6-aza-spiro[3.3]hept-6-yl)-methanone] |
| 8.55 | Cc1onc(-c2ccccc2)c1COc1cc(C(=O)NN2CCOCC2)on1 [Example 13, 3-(5-Methyl-3-phenyl-isoxazol-4-ylmethoxy)-isoxazole-5-carboxylic acid morpholin-4-ylamide] |
| 8.11 | Cc1onc(-c2ccccn2)c1COc1cc(C(=O)NN2CCCC2)on1 [Example 21, 3-(5-Methyl-3-pyridin-2-yl-isoxazol-4-ylmethoxy)-isoxazole-5-carboxylic acid pyrrolidin-1-ylamide] |
| 8.77 | Cc1onc(-c2ccc(F)cn2)c1COc1cc(C(=O)NC(C)C)on1 [Example 22, 3-[3-(5-Fluoro-pyridin-2-yl)-5-methyl-isoxazol-4-ylmethoxy]-isoxazole-5-carboxylic acid isopropylamide] |
| 7.46 | Cc1onc(-c2ccccc2)c1COc1cc(C(=O)NCCO)sn1 [Example 35, 3-(5-Methyl-3-phenyl-isoxazol-4-ylmethoxy)-isothiazole-5-carboxylic acid (2-hydroxy-ethyl)-amide] |
| 7.65 | Cc1onc(-c2ccccc2)c1COc1cc(C(=O)NN(C)C)on1 [Example 10, 3-(5-Methyl-3-phenyl-isoxazol-4-ylmethoxy)-isoxazole-5-carboxylic acid N′,N′-dimethyl-hydrazide] |
| 7.65 | CCCCc1noc(C)c1COc1cc(C(=O)NCCO)on1 [Example 24, 3-(3-Butyl-5-methyl-isoxazol-4-ylmethoxy)-isoxazole-5-carboxylic acid (2-hydroxy-ethyl)-amide] |
| 7.77 | CC(=O)OCCNC(=O)c1cc(OCc2c(-c3ccccc3)noc2C)no1 [Example 7, Acetic acid 2-{[3-(5-methyl-3-phenyl-isoxazol-4-ylmethoxy)-isoxazole-5-carbonyl]-amino}-ethyl ester] |
| 8.00 | O=C(NCC(F)(F)F)c1cc(OCc2c(-c3ccc(F)cc3)noc2CO)no1 [Example 45, 3-[3-(4-Fluoro-phenyl)-5-hydroxymethyl-isoxazol-4-ylmethoxy]-isoxazole-5-carboxylic acid (2,2,2-trifluoro-ethyl)-amide] |
| 8.60 | Cc1onc(-c2ccccn2)c1COc1cc(C(=O)NC(C)C)on1 [Example 14, 3-(5-Methyl-3-pyridin-2-yl-isoxazol-4-ylmethoxy)-isoxazole-5-carboxylic acid isopropyl-amide] |
| 8.85 | Cc1onc(-c2ccccn2)c1COc1cc(C(=O)NC2CCOC2)on1 (stereo not shown) [Example 16, 3-(5-Methyl-3-pyridin-2-yl-isoxazol-4-ylmethoxy)-isoxazole-5-carboxylic acid (tetrahydro-furan-3-yl)-amide] |
| 7.89 | Cc1onc(-c2ccc(F)cn2)c1COc1cc(C(=O)NCCO)sn1 [Example 39, 3-[3-(5-Fluoro-pyridin-2-yl)-5-methyl-isoxazol-4-ylmethoxy]-isothiazole-5-carboxylic acid (2-hydroxy-ethyl)-amide] |
| 8.12 | Cc1onc(-c2ccccc2)c1COc1cc(C(=O)NC(C)C)on1 [Example 3, 3-(5-Methyl-3-phenyl-isoxazol-4-ylmethoxy)-isoxazole-5-carboxylic acid isopropylamide] |
| 8.64 | Cc1onc(-c2ccccn2)c1COc1cc(C(=O)NCC(F)(F)F)on1 [Example 17, 3-(5-Methyl-3-pyridin-2-yl-isoxazol-4-ylmethoxy)-isoxazole-5-carboxylic acid (2,2,2-trifluoro-ethyl)-amide] |

Second part, the molecule before the results:

| Structure (SMILES) | pKi |
| --- | --- |
| CCCCc1noc(C)c1COc1cc(C(=O)NC2CCOC2)sn1 (stereo not shown) [Example 41, 3-(3-Butyl-5-methyl-isoxazol-4-ylmethoxy)-isothiazole-5-carboxylic acid (tetrahydro-furan-3-yl)-amide] | 7.54 |
| Cc1onc(-c2ccccn2)c1COc1cc(C(=O)NCCO)sn1 [Example 37, 3-(5-Methyl-3-pyridin-2-yl-isoxazol-4-ylmethoxy)-isothiazole-5-carboxylic acid (2-hydroxy-ethyl)-amide] | 7.75 |
| CCCCc1noc(C)c1COc1cc(C(=O)NC(C)CO)on1 (stereo not shown) [Example 25, 3-(3-Butyl-5-methyl-isoxazol-4-ylmethoxy)-isoxazole-5-carboxylic acid (2-hydroxy-1-methyl-ethyl)-amide] | 7.56 |
| CCCCc1noc(C)c1COc1cc(C(=O)NC2CCOC2)on1 (single isomer, unassigned) [Example 30, (R or S)-3-(3-Butyl-5-methyl-isoxazol-4-ylmethoxy)-isoxazole-5-carboxylic acid (tetrahydro-furan-3-yl)-amide] | 8.19 |
| Cc1onc(-c2ccccn2)c1COc1cc(C(=O)NC(C)C)sn1 [Example 36, 3-(5-Methyl-3-pyridin-2-yl-isoxazol-4-ylmethoxy)-isothiazole-5-carboxylic acid isopropyl-amide] | 7.82 |
| Cc1onc(-c2ccccc2)c1COc1cc(C(=O)NC(C)C)sn1 [Example 34, 3-(5-Methyl-3-phenyl-isoxazol-4-ylmethoxy)-isothiazole-5-carboxylic acid isopropylamide] | 7.55 |
| CCCCc1noc(C)c1COc1cc(C(=O)NC(C)C)on1 [Example 28, 3-(3-Butyl-5-methyl-isoxazol-4-ylmethoxy)-isoxazole-5-carboxylic acid isopropylamide] | 7.61 |
| CCCCc1noc(C)c1COc1cc(C(=O)NC2CCOC2)on1 (stereo not shown) [Example 29, 3-(3-Butyl-5-methyl-isoxazol-4-ylmethoxy)-isoxazole-5-carboxylic acid (tetrahydro-furan-3-yl)-amide] | 8.07 |
| CCCCc1noc(C)c1COc1cc(C(=O)NN(C)C)on1 [Example 32, 3-(3-Butyl-5-methyl-isoxazol-4-ylmethoxy)-isoxazole-5-carboxylic acid N′,N′-dimethyl-hydrazide] | 7.25 |
| CCCCc1noc(C)c1COc1cc(C(=O)N[C@@H](C)CO)on1 [Example 26, 3-(3-Butyl-5-methyl-isoxazol-4-ylmethoxy)-isoxazole-5-carboxylic acid ((S)-2-hydroxy-1-methyl-ethyl)-amide] | 7.64 |
| CCCCc1noc(C)c1/C=C/c1cc(C(=O)NCCO)on1 [Example 1, 3-[(E)-2-(3-Butyl-5-methyl-isoxazol-4-yl)-vinyl]-isoxazole-5-carboxylic acid (2-hydroxy-ethyl)-amide] | 7.54 |
| CCCCc1noc(C)c1COc1cc(C(=O)NC2CCOC2)on1 (single isomer, unassigned) [Example 31, (S or R)-3-(3-Butyl-5-methyl-isoxazol-4-ylmethoxy)-isoxazole-5-carboxylic acid (tetrahydro-furan-3-yl)-amide] | 8.55 |
| CCCCc1noc(C)c1COc1cc(C(=O)N[C@H](C)CO)on1 [Example 27, 3-(3-Butyl-5-methyl-isoxazol-4-ylmethoxy)-isoxazole-5-carboxylic acid ((R)-2-hydroxy-1-methyl-ethyl)-amide] | 7.42 |
| Cc1onc(-c2ccc(F)cn2)c1COc1cc(C(=O)NC2CCOC2)sn1 (stereo not shown) [Example 40, 3-[3-(5-Fluoro-pyridin-2-yl)-5-methyl-isoxazol-4-ylmethoxy]-isothiazole-5-carboxylic acid (tetrahydro-furan-3-yl)-amide] | 8.42 |
| CCCCc1noc(C)c1COc1cc(C(=O)NN2CCOCC2)on1 [Example 33, 3-(3-Butyl-5-methyl-isoxazol-4-ylmethoxy)-isoxazole-5-carboxylic acid morpholin-4-ylamide] | 7.98 |
